Like-named read-outs stand apart in the source and are kept apart here.

In general, Kb refers to the affinity of an antagonist, worked out from how it opposes an agonist. By IC50 is commonly meant the concentration needed to halve the response being measured. Lower therefore signals higher potency.

A short description of one data set: Solubility in water. The settings on record: in words.
In a further data set the target is T1, M2 (vagal bradycardia) (Rattus norvegicus, UniProt P10980).
T1 construct: The bradycardia produced by vagus stimulation; from tissue; host or cells: whole animal (male THOM rats), heart
T1 sequence (P10980 1-466): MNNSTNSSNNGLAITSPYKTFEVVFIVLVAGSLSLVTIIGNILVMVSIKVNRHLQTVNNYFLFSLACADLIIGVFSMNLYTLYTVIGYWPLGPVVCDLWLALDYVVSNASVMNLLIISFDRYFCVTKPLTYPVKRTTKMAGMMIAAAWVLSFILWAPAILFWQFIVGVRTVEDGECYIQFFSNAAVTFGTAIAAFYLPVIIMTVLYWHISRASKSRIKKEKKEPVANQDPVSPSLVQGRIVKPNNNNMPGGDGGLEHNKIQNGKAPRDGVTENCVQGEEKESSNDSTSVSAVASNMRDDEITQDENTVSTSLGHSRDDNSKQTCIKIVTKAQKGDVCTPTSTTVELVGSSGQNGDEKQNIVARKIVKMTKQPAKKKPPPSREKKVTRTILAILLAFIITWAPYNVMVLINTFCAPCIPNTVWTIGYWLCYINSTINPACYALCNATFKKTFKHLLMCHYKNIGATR
In words: M1/M2 selectivity in the rat: inhibition of vagally stimulated bradycardia (M2). Type of data set: in vivo, male THOM rats. The conditions noted are these: iv, 5 min, read-out: M2 activity (rat) ED50. On the procedure:
The method used was described by Hammer and Giachetti (Life Sciences 31, 2991-2998 (1982)). 5 minutes after intravenous injection of increasing doses of the substance, either the right vagus was electrically stimulated (frequency: 25 Hz; pulse width: 2 ms; duration of stimulus: 30 s; number of volts: supramaximal) or 0.3 mg/kg of McN-A-343 was injected intravenously into male THOM rats. The bradycardia produced by vagus stimulation and the increase in blood pressure produced by McN-A-343 were measured.

Data set [1] has as its target T2, muscarinic receptors of the atrium (Cavia porcellus, UniProt H0VRN8).
T2 construct: In the isolated, spontaneously beating right atrium; from tissue; host or cells: isolated right atrium of guinea pig
T2 sequence (H0VRN8 1-466): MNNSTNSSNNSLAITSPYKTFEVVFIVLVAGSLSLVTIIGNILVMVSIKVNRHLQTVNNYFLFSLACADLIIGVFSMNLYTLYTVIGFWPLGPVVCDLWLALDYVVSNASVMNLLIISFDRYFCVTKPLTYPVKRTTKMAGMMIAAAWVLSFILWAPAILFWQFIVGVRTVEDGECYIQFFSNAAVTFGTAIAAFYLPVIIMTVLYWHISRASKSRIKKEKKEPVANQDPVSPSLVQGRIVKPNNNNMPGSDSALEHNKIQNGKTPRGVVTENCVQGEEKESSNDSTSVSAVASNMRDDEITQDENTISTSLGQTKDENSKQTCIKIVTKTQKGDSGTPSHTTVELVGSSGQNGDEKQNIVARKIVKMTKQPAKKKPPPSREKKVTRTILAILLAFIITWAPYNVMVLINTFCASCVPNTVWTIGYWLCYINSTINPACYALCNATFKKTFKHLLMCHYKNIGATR
In words: Dissociation constants (KB) on spontaneously beating right atrium, methacholine antagonism. Further details: species or system guinea pig. On the procedure: Dissociation constants (KB values) were determined in vitro on the guinea pig ileum and spontaneously beating atrium. The ileum was removed and incubated in Krebs-Henseleit solution in an organ bath. Contractions were produced by means of increasing concentrations of methacholine (M) so that a full concentration-activity curve could be plotted. Then M was washed out, the test substance was added and kept in contact for 30 minutes and again a concentration-activity curve was plotted with M. The dissociation constant was calculated according to Arunlakshana and Schild (Brit. J. Pharmacol. 14, 48, 1959) from the dosage ratio (DR), i.e. the extent of displacement of the concentration-activity curve.
In the isolated, spontaneously beating right atrium M reduced the heart rate as a function of the concentration. This effect was stopped by the addition of an antimuscarinic. Dissociation constants for the muscarinic receptors of the atrium were obtained in the same way as described above. A comparison of the dissociation constants measured in the two different tissues made it possible to identify cardioselective substances.

The target in data set [2] is T3, M1 (rise in blood pressure by McN-A-343) (Rattus norvegicus, UniProt P08482).
T3 construct: from tissue
T3 sequence (P08482 1-460): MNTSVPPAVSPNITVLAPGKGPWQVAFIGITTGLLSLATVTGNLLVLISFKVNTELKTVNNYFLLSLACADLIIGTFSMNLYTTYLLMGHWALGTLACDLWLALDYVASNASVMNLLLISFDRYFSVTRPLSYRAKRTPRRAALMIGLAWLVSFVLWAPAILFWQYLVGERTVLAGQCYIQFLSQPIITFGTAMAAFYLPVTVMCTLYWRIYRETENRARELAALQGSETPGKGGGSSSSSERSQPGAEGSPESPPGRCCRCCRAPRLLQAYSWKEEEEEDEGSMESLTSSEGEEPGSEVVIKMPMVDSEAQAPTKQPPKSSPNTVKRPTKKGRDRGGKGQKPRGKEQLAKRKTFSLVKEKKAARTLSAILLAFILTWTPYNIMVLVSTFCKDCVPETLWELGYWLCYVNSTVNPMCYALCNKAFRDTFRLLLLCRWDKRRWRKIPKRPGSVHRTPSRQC
Kind of data set: M1/M2 selectivity in the rat: inhibition of McN-A-343 blood pressure increase (M1). It is filed as in vivo, male THOM rats. The settings on record: iv, 5 min.

For data set [3], the target named is T4, muscarinic receptors, lachrymal glands (Rattus norvegicus, UniProt P08483).
T4 construct: from tissue; host or cells: lachrymal glands of female rats, labelled in vivo
T4 sequence (P08483 whole entry): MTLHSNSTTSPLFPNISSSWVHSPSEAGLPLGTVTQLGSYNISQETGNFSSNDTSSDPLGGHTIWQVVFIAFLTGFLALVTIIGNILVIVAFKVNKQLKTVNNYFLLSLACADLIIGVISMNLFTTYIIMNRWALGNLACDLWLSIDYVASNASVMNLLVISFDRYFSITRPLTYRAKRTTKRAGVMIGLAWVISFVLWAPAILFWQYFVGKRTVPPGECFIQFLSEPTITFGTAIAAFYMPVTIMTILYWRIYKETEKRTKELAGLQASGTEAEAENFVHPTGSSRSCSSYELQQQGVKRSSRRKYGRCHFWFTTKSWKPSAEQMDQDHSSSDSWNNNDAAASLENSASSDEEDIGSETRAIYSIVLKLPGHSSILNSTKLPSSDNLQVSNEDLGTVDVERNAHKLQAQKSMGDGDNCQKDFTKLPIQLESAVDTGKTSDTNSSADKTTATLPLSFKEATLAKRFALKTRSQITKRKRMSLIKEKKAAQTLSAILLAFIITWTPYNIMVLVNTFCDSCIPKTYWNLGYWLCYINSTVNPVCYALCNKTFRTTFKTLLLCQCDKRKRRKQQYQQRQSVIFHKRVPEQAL
Kind of data set: Receptor bonding test in vivo, lachrymal glands (3H-NMS). The settings on record: iv, 0.5 h, read-out: ID50 Lachrymal glands. Also on record: species or system female rats. On the procedure:
(§1) For these experiments, female rats with a body weight of about 200 g were used. Before the start of the test the animals were anaesthetised with a dosage of 1.25 g/kg of urethane. The animals were each given the prescribed dosage of test substance by intravenous injection. After 15 minutes, 113 ng/kg of ^3 H-N-methylscopolamine (^3 H-NMS) were administered by the same route. After another 15 minutes the animals were killed and the heart, bronchi and lachrymal glands were removed. These organs were dissolved in Soluene R and the radioactivity was determined. The measurements were assumed to be total bonding. […] ID50 values were determined for the individual organs using these tests.

For data set [4], the target named is T5, muscarinic receptors, heart (Rattus norvegicus, UniProt P10980).
T5 construct: After removal of the heart and submandibular gland; from tissue; host or cells: whole heart of male Sprague-Dawley rats, homogenate
T5 sequence (P10980 1-466): T1 sequence (P10980 1-466)
In words: Receptor bonding test in vitro, heart (displacement of 3H-N-methylscopolamine). Type of data set: binding, Sprague-Dawley rats. The settings on record: 0.3 nmolar 3H-NMS, 30° C., 45 min, heart. On the technique in general: Displacement assays read how much labelled ligand stays bound in the presence of the test substance.

The target in data set [5] is T6, muscarinic receptors, submandibular gland (Rattus norvegicus, UniProt P08483).
T6 construct: After removal of the heart and submandibular gland; from tissue; host or cells: submandibular gland of male Sprague-Dawley rats, homogenate
T6 sequence (P08483 whole entry): as above
In words: Receptor bonding test in vitro, submandibular gland (displacement of 3H-N-methylscopolamine). Type of data set: binding, Sprague-Dawley rats. The settings on record: 0.3 nmolar 3H-NMS, 30° C., 45 min.

Another data set concerns salivation. In words: Salivation-inhibiting effect on the rat (pilocarpine). It is filed as in vivo, male THOM rats. The conditions noted are these: Rattus norvegicus, iv, read-out: Salivation inhibition (rat) ED50. The procedure:
The secretion of saliva was triggered by subcutaneous administration of 2 mg/kg of pilocarpine. The saliva was soaked up with blotting paper and the area occupied by the saliva was determined by planimetry every 5 minutes. The dosage of substance which reduced the volume of saliva by 50% was determined graphically.

Data set [6] has as its system muscarinic receptors, bronchi. In words: Receptor bonding test in vivo, bronchi (3H-NMS). Also on record: species or system female rats. The settings on record: in vivo binding, i.v., rat, 113 ng/kg 3H-NMS; 30 min. On the procedure: as §1
In data set [7] the target is T7, muscarinic receptors, heart atrium (Rattus norvegicus, UniProt P10980).
T7 construct: from tissue; host or cells: heart (atrium, ventricle) of female rats, labelled in vivo
T7 sequence (P10980 1-466): T1 sequence (P10980 1-466)
In words: Receptor bonding test in vivo, heart atrium (3H-NMS). Further details: species or system female rats. The conditions noted are these: rat, iv, 0.5 h, read-out: ID50 Heart Atrium. On the procedure:
as §1

The target of data set [8] is T8, muscarinic receptors, heart ventricle (Rattus norvegicus, UniProt P10980).
T8 construct: the heart, bronchi and lachrymal glands were removed; from tissue; host or cells: heart (atrium, ventricle) of female rats, labelled in vivo
T8 sequence (P10980 1-466): T1 sequence (P10980 1-466)
In words: Receptor bonding test in vivo, heart ventricle (3H-NMS). Further details: species or system female rats. The conditions noted are these: iv, 0.5 h, read-out: ID50 Heart Ventricle. The procedure: as §1

With `CN(C)CC1CCCCN1CCCCNC(=O)N1c2ccccc2C(=O)Nc2cccnc21` (racemic) [Example 20, D,L-5,11-Dihydro-11-[[[4-[2-[(dimethylamino)methyl]-piperidin-1-yl]butyl]amino]carbonyl]-6H-pyrido[2,3-b][1,4]benzodiazepin-6-one], the solubility in water entry in “Solubility in water” was “soluble in water”.
As for `CCN(CC)CC1CCCCN1CCCNC(=O)N1c2ccccc2NC(=O)c2ccccc21` (stereo not drawn) [Example 8, 5-[[[3-[2-[(Diethylamino)methyl]-piperidin-1-yl]propyl]amino]carbonyl]-5,10-dihydro-11H-dibenzo[b,e][1,4]diazepin-11-one], the solubility in water result in “Solubility in water” was “Soluble in water”.
Still for that read-out and setting: for `Cl.O=C1Nc2cccnc2N(C(=O)NCCN2CCCCC2CN2CCCCC2)c2ccccc21` (stereo not drawn) [Example 39, 5,11-Dihydro-11-[[[2-[2-[(piperidin-1-yl)methyl]-piperidin-1-yl]ethyl]amino]carbonyl]-6H-pyrido[2,3-b][1,4]benzodiazepin-6-one hydrochloride] the value was “soluble in water”.
As for `CCN(CC)CC1CCCCN1CC(=O)N1c2ccccc2C(=O)Nc2cccnc21` (stereo not drawn) [Substance X, 11-[[2-[(diethylamino)methyl]-piperidin-1-yl]acetyl]-5,11-dihydro-6H-pyrido[2,3-b][1,4]benzodiazepin-6-one, reference compound], the ED50 is 0.16 mg/kg at M2 (vagal bradycardia) (i.v., 50% reduction in vagal bradycardia); 0.988 mg/kg in data set [2] (i.v., 50% reduction in blood pressure rise by 0.3 mg/kg McN-A-343, read-out: M1 activity (rat) ED50); more than 30 mg/kg in data set [3]. Further, the Kb in [1] (guinea pig spontaneously beating atrium, methacholine, 30 min contact, read-out: KB Heart (dissociation constant)) worked out at 105 nM. Further, the IC50 in data set [4] came out at 150 nM; in [5], 5000 nM.
On to `CN1CCN(CC(=O)N2c3ccccc3C(=O)Nc3cccnc32)CC1` [Substance Y, 5,11-dihydro-11-[(4-methyl-piperazin-1-yl)acetyl]-6H-pyrido[2,3-b][1,4]benzodiazepin-6-one, reference compound], for which, in data set [1], the Kb worked out at 240 nM. Further, in the data set with salivation, the ED50 was 0.084 mg/kg.
Consider `CN1C2CCC1CC(OC(=O)C(CO)c1ccccc1)C2` (stereo not drawn) [Substance Z, atropine, reference compound], for which the ED50 at M2 (vagal bradycardia) is 0.004 mg/kg; in data set [2] (read-out: M1 activity (rat) ED50) it was 0.016 mg/kg; in data set [3] it was 0.2 mg/kg; in data set [7], 0.08 mg/kg; in data set [8], 0.03 mg/kg. The same compound displayed an antagonist equilibrium constant (Kb) in [1] of 1.41 nM. Moreover, in data set [6], the “ID50 Bronchi” value was determined as 0.1 mg/kg.

The values are drawn from patent US4873236A, “Condensed diazepinones, processes for preparing them and pharmaceutical compositions containing these compounds” (Dr. Karl Thomae GmbH, priority 1986, dated 1989).
